Entries after “also recorded” stand apart in the source; their conditions may differ.
How the values were obtained:
[1] = system: AlCl3-induced AD rat model; assay: Morris water maze (MWM) test in AlCl3-induced AD rats; type: in vivo; conditions: for Learning (s): escape latency; for Learning (s) / Memory (s): mean ± SE, n = 6; for Memory (s): time spent in target quadrant
Method: All procedures were conducted conforming to the applicable National Institutes of Health standards and regulations for the Care and Use of Laboratory Animals. In this experiment, adult male Dawley rats in excellent condition weighing between 300 and 320 g were used. The animals were acquired from the Nile Company for Pharmaceuticals and Chemical Industries (Cairo, Egypt). They were placed in a controlled laboratory setting with unrestricted access to water, a temperature range of 24 to 26 °C, and 12 h a light–dark cycle. Three rats per cage were housed in polycarbonate cages that were individually packed with paper and encased with stainless steel wire.
Spatial learning and memory were inspected using the MWM test. Tap water was poured into a 150 cm diameter by 60 cm high circular water tank until it reached a depth of 30 cm (25 ± 2 °C). To make the water […], non-toxic white dye was applied. The east, west, north, and south quadrants of the pool were essentially separated into four equal sections. At a specific spot in the middle of one quadrant, an escape platform with a diameter of 10 cm was submerged 2 cm below the water’s surface. The platform stood in the exact same quadrant throughout the testing. The rats’ swimming route was recorded by a video camera situated above the pool. From a designated spot in each quadrant, each rat was submerged in the water with its back turned to the pool wall, and it was then left to swim to the platform. The rats received training sessions every day for three days in a row, with four trials conducted in each session. Before the next trial began, the animals were kept a maximum of 60 s to explore the hidden platform. After that, they were permitted to relax on it for 20 s. The rat was positioned gently on the platform and allowed 20 s to rest if it took longer than 60 s to locate it. The time taken to find the platform, or the escape latency, was documented. In order to do a probing test on the fourth day, the platform was detached away, and the rats were given 60 s to swim liberally. The time spent in the assigned quadrant was counted.

BDNF = assay: Brain BDNF level (ELISA); type: in vivo, rat; conditions: AlCl3-induced AD rats; for BDNF (ng/mL): brain tissue, mean ± SE, n = 6
Method: (§1) The brain tissues of the rats were removed and rigorously washed in isotonic saline 24 h after they were euthanized following the last behavioral test. For histological investigation, four brains per group were preserved for the whole night in 10% neutral buffered formalin. The remaining six brains were split into two sections each. In order to create a 10% homogenate (w/v), the first component was instantaneously homogenized using an ice-cold solution that included 300 mM sucrose and 50 mM Tris-HCl (pH 7.4). The homogenate was centrifuged at 1800× g for 10 min at 4 °C for biochemical tests, and the supernatant was thereafter kept at −20 °C. The second portion was set aside for use in RT-PCR analysis at −80 °C [94].
(§2) See Supplementary Information.

AChE [2] = type: in vivo; parameters: reduction in AChE levels: concentration or dose not given beside the values; conditions: AlCl3-induced AD rats; for AChE (ng/g Tissue): brain tissue, mean ± SE, n = 6; for reduction in AChE levels: brain
TNF-α = assay: Brain TNF-α level (ELISA); type: in vivo, rat; conditions: AlCl3-induced AD rats; for TNF-α (pg/g Tissue): mean ± SE, n = 6
Method: as §1, with “[94]. […]” for “[94].”

IL-1β = assay: Brain IL-1β level (ELISA); type: in vivo, rat; parameters: reduction in IL-1β levels: concentration or dose not given beside the values; conditions: AlCl3-induced AD rats; for IL-β (pg/g Tissue): mean ± SE, n = 6
Method: as §1, with “[94]. […]” for “[94].”

Caspase-1 = Caspase-1 gene expression (RT-qPCR); type: in vivo, rat; parameters: reduction of Caspase-1 levels: concentration or dose not given beside the values; conditions: AlCl3-induced AD rats; for Caspase-1: gene expression, mean ± SE, n = 6
Method: as §1, §2

BAX = BAX gene expression (RT-qPCR); type: in vivo, rat; conditions: AlCl3-induced AD rats; for BAX: gene expression, mean ± SE, n = 6
Method: as §1, §2

Bcl-2 = Bcl-2 gene expression (RT-qPCR); type: in vivo, rat; conditions: AlCl3-induced AD rats; for Bcl-2: gene expression, mean ± SE, n = 6
Method: as §1, §2

Wnt3a = assay: Brain Wnt3a level; type: in vivo, rat; conditions: AlCl3-induced AD rats; for Wnt3a (ng/g Tissue): mean ± SE, n = 6
Method: as §1, §2

β-catenin = assay: Brain β-catenin level; type: in vivo, rat; conditions: AlCl3-induced AD rats; for β-Catenin (ng/L): mean ± SE, n = 6
Method: as §1, §2

SOD = assay: Brain SOD activity (colorimetric); type: in vivo, rat; conditions: brain tissue, AlCl3-induced AD rats; mean ± SE, n = 6
Method: as §1
(§3) The SOD enzyme activity was estimated using the Marklund et al. method, which is founded on the enzyme’s capacity to decrease the nitro blue tetrazolium dye at a wavelength of 540 nm. To evaluate the TAC, a colorimetric approach was employed to estimate the amount of hydrogen peroxide that remains after 3,5-dichloro-2-hydroxybenzene sulphonate is converted to a colored product at 660 nm.

TAC = assay: Brain TAC (colorimetric); type: in vivo, rat; conditions: AlCl3-induced AD rats; for TAC (µmol/g Tissue): brain tissue, mean ± SE, n = 6
Method: as §1, §3

Nrf-2 = Nrf-2 mRNA expression (RT-qPCR); type: in vivo, rat; conditions: AlCl3-induced AD rats; for Nrf-2: mRNA expression in brain tissue, mean ± SE, n = 6
Method: as §1, §2

[3] = system: brain tissue (CC, ST, FD, SN neurons); assay: Histopathological examination of brain tissue; type: in vivo, rat; conditions: brain sections, AlCl3-induced AD rats; for histopathological finding in CC, ST, FD and SN (NP = nuclear pyknosis): H&E
Method: as §1
Brain tissue samples were stationed in 10% formalin for 24 h, washed with water, and then serially diluted with alcohol to induce dehydration. After being submerged in paraffin, the specimens were cut into segments that were 4 µm thick using a microtome.

AChE [4] = target: T1, AChE (Homo sapiens, UniProt P22303); assay: biochemical; conditions: colorimetric kit, 412 nm
T1 construct: purchased BioVision K197-100
T1 sequence (P22303 32-614): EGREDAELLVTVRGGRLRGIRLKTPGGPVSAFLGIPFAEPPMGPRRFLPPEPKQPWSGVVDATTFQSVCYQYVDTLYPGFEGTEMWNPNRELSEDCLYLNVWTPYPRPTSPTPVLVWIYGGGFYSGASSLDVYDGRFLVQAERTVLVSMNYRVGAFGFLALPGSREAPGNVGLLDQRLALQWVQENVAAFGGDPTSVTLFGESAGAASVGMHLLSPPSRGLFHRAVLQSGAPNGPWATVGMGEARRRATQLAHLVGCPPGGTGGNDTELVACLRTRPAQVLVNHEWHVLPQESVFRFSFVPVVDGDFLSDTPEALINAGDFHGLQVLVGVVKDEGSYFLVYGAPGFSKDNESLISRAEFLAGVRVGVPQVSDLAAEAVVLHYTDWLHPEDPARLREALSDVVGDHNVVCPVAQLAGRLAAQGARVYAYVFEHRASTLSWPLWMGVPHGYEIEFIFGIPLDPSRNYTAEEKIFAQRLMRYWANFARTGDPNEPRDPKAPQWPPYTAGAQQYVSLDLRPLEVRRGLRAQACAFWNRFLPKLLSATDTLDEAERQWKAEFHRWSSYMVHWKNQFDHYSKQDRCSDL
Method: All newly created compounds were subjected to an AChE enzyme inhibitory screening. This was performed with the Colorimetric AChE Inhibitor Screening Kit (BioVision Catalog # K197-100). The 96-well assay kit provides a rapid, simple, and reliable way to screen for AChE inhibitors in large quantities. […] A completely transparent 96-well plate with a flat bottom was loaded with 10 µL of test inhibitors that were diluted (20×). […] A measure of 10 μL of diluted AChE was applied to each well that contained compounds, inhibitor control, and solvent control. […] Measures of 25 μL of AChE assay buffer, 5 μL of probe mix, and 10 μL of diluted AChE substrate were mixed to create the reaction mix. The reaction mix was mixed with the compound, enzyme control, and inhibitor control. […] The IC50 was calculated using nonlinear regression analysis using the response–concentration (log) curve.

Row | Structure (SMILES) | Learning (s) [1] | Memory (s) [1] | elevation of BDNF levels (BDNF) | BDNF (ng/mL) (BDNF) | AChE (ng/g Tissue) (AChE [2]) | reduction in AChE levels (AChE [2]) | decline in TNF-α levels (TNF-α) | TNF-α (pg/g Tissue) (TNF-α) | reduction in IL-1β levels (IL-1β) | IL-β (pg/g Tissue) (IL-1β) | reduction of Caspase-1 levels (Caspase-1) | Caspase-1 (Caspase-1) | BAX (BAX) | upregulation of Bcl-2 gene expression (Bcl-2) | Bcl-2 (Bcl-2) | elevation of Wnt3a levels (Wnt3a) | Wnt3a (ng/g Tissue) (Wnt3a) | elevation of β-catenin levels (β-catenin) | β-Catenin (ng/L) (β-catenin) | SOD(U/g) (SOD) | also measured
1 | O=C1CN(c2ccc(O)cc2)C(=O)c2c(sc3c2CCCCC3)O1 [Compound 15, 4-(4-Hydroxyphenyl)-3,4,7,8,9,10-hexahydro-6H-cyclohepta[4,5]thieno[3,2-f][1,4]oxa-zepine-2,5-dione] | 19.17 ± 1.01 ^abc s | 42.50 ± 1.06 ^abc s | 2.2 fold | 94.48 ± 0.05 ^abc ng/mL | 25.73 ± 0.37 ^abc ng/g Tissue | 61.8% | 74.6% | 44.6 ± 0.6 ^abc pg/g Tissue | 61.1% | 45.66 ± 1.03 ^abc pg/g Tissue | 69.1% | 2.94 ± 0.110 ^abc | 4.47 ± 0.040 ^abc | 7.1 fold | 0.86 ± 0.020 ^abc | 7.3 fold | 0.88 ± 0.01 ^abc ng/g Tissue | 8.8 fold | 13.86 ± 0.11 ^abc ng/L | 2.56 ± 0.54 ^abc U/g | increase in quadrant residence time [1]: ~4.3 times; reduction in escape latency [1]: 61%; improvement of TAC levels (TAC): ~3.3 times; TAC (µmol/g Tissue) (TAC): 31.67 ± 0.42 ^abc µmol/g Tissue; elevation of Nrf-2 mRNA expression (Nrf-2): 5.1 fold; Nrf-2 (Nrf-2): 0.82 ± 0.020 ^abc; histopathological finding in CC, ST, FD and SN (NP = nuclear pyknosis) [3]: normal histology of CC and FD, and moderate NP in ST and SN; histology of CC neurons and FD [3]: normal histological structures; pyknosis in ST and SN neurons [3]: moderate pyknosis; IC50 (AChE [4]): 1.59 ± 0.06 µM
2 | O=C1CN(c2ccccc2)C(=O)c2c(sc3c2CCCCC3)O1 [Compound 11, 4-Phenyl-3,4,7,8,9,10-hexahydro-6H-cyclohepta[4,5]thieno[3,2-f][1,4]oxazepine-2,5-dione] | 25.17 ± 1.25 ^abc s | 35.17 ± 0.95 ^abc s | 3 fold | 127.3 ± 0.01 ^abc ng/mL | 20.09 ± 0.45 ^abc ng/g Tissue | 70.1% | 43.6% | 99.23 ± 0.42 ^abc pg/g Tissue | 42.1% | 68.56 ± 0.54 ^abc pg/g Tissue | 37.8% | 5.92 ± 0.040 ^abc | 6.84 ± 0.090 ^abc | 4.3 fold | 0.52 ± 0.020 ^abc | 3.9 fold | 0.47 ± 0.01 ^abc ng/g Tissue | 4.8 fold | 7.25 ± 0.04 ^abc ng/L | 2.46 ± 0.32 ^abc U/g | increase in quadrant residence time [1]: 3.5 times; suppression of BAX gene expression (BAX): 29.3%; improvement of TAC levels (TAC): 4 times; TAC (µmol/g Tissue) (TAC): 38.23 ± 0.50 ^abc µmol/g Tissue; Nrf-2 (Nrf-2): 0.35 ± 0.006 ^abc; histopathological finding in CC, ST, FD and SN (NP = nuclear pyknosis) [3]: mild NP in neurons in CC and moderate NP in ST, FD, and SN; also recorded: minor NP in the CC and significant NP in FD, ST, and SN; IC50 (AChE [4]): 2.67 ± 0.09 µM
3 | CCOc1ccc(N2CC(=O)Oc3sc4c(c3C2=O)CCCCC4)cc1 [Compound 14, 4-(4-Ethoxyphenyl)-3,4,7,8,9,10-hexahydro-6H-cyclohepta[4,5]thieno[3,2-f][1,4]oxazepine-2,5-dione] | 21 ± 1.13 ^abc s | 29.50 ± 2 ^abc s | 2.7 fold | 115.8 ± 0.07 ^abc ng/mL | 19.4 ± 0.39 ^abc ng/g Tissue | 71.2% | 58.4% | 73.21 ± 0.58 ^abc pg/g Tissue | 49.3% | 59.92 ± 0.98 ^abc pg/g Tissue | 46.6% | 5.08 ± 0.050 ^abc | 5.49 ± 0.100 ^abc | 5.8 fold | 0.70 ± 0.004 ^abc | 4 fold | 0.66 ± 0.02 ^abc ng/g Tissue | 5.3 fold | 8.4 ± 0.09 ^abc ng/L | 2.38 ± 0.78 ^abc U/g | improvement of TAC levels (TAC): 3.8 times; TAC (µmol/g Tissue) (TAC): 36.96 ± 0.51 ^abc µmol/g Tissue; elevation of Nrf-2 mRNA expression (Nrf-2): 3.1 fold; Nrf-2 (Nrf-2): 0.50 ± 0.020 ^abc; histopathological finding in CC, ST, FD and SN (NP = nuclear pyknosis) [3]: moderate NP in CC, FD, and SN, normal histology of neurons in ST; also recorded: significant pyknosis; IC50 (AChE [4]): 0.39 ± 0.01 µM
